Measurements published in PMC9486129, “An evolutionary divergent thermodynamic brake in ZAP-70 fine-tunes the kinetic proofreading in T cells” (The Journal of Biological Chemistry, 2022).
Where a chain is given by its changes, count along the chain named. “And” between values parts separate entries of the source, which are not always exact repeats. Equal entries are not always repeated. Where a SMILES comes first, the peptide text is derived from it. [ ]: non-standard residue; d: D form. pY = N[C@@H](Cc1ccc(OP(=O)(O)O)cc1)C(=O)O

What was measured:
tSH2R192A of ZAP-70 = molecular target: T1, tSH2R192A of ZAP-70 (Homo sapiens, UniProt P43403); assay: Isothermal titration calorimetry, ZAP-70 tSH2R192A (C-SH2 mutant)
T1 sequence (P43403 1-256 R190A): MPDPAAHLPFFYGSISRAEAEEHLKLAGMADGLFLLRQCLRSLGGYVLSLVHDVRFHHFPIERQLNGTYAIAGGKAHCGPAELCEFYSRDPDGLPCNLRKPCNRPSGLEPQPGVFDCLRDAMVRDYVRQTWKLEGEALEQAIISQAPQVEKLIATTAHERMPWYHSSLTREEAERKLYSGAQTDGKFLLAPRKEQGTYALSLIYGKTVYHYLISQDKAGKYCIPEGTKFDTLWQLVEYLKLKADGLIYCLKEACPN
Description: We probed Kd1 and Kd1∗ by fluorescence spectroscopy and Kd2 and Kd1∗ by ITC. To probe the Kd2 , we used ^tSH2R190A mutant that impairs phosphotyrosine binding to C-SH2 PBP (Figs. 1E and S1F).
ITC studies were carried out using Malvern-PEAQ_ITC at 20 °C. […] The Kd , ΔH, and ΔS were fitted into two-site sequential fit using ORIGIN as described previously ([33]). In the ITC experiments with C-SH2 domain mutant (R190A), the protein was buffer exchanged to 20 mM Hepes pH 8.2, 150 mM NaCl, and 5 mM β-mercaptoethanol.

Syk tSH2 domain = molecular target: T2, Syk tSH2 domain (Homo sapiens, UniProt P43405); assay: Steady-state intrinsic tryptophan fluorescence titration, Syk tSH2; format: binding; settings: 25 °C, 0.5 μM tSH2, SD from three independent experiments
T2 construct: Syk tSH2 (7–263), cloned in pGEX6P1 vector; GST (N, cleaved yes); host or cells: E. coli BL21(DE3)
Description: (§1) The dissociation constant ( Kd ) was derived by fitting the normalized intensity (F0/F) versus ligand concentration using the following equation: F0/F=Bmax∗X^nH/(Kd^nH+X^nH) where F0 and F is fluorescence intensity in absence and presence of ligand, respectively. Bmax is the maximum binding, and nH is the Hill coefficient. The Hill coefficient (nH) was also determined from Hill plot ([70]).

tSH2 domain of ZAP-70 = molecular target: T3, tSH2 domain of ZAP-70 (Homo sapiens, UniProt P43403); assay: Steady-state intrinsic tryptophan fluorescence titration, ZAP-70 tSH2 wild type; format: binding
T3 construct: ZAP-70 tSH2 WT (1–256), cloned in pSKB2 vector; made in house; host or cells: E. coli BL21(DE3)
T3 sequence (P43403 1-256): T1 sequence (P43403 1-256 R190A) with A190R
Description: as §1

ZAP-70 tSH2 domain = molecular target: T4, ZAP-70 tSH2 domain (Homo sapiens, UniProt P43403); assay: Stopped-flow fluorescence binding kinetics, ZAP-70 tSH2 wild type; settings: 10 °C
T4 construct: ZAP-70 tSH2 WT (1–256), cloned in pSKB2 vector; made in house; host or cells: E. coli BL21(DE3)
T4 sequence (P43403 1-256): T1 sequence (P43403 1-256 R190A) with A190R
Description: We observed that the fluorescence intensity decay in two steps, fast (<200 ms) and slow (>20 s) (Fig. 3A). […] All kinetic data were first normalized against the highest intensity and then subtracted by the blank (protein only sample) (Fig. 3, A and B) and fitted to a one-site association kinetics (Table 1).
The change in fluorescence intensity was measured at λex 290 nm, λem 350 nm, and 10 °C ([71]). […] Each transient was measured over 200s (for slow kinetics) or 1s (for fast kinetics), interval with 1500 and 101 time points, respectively. For each sample, a blank dataset was recorded by measuring the change in intensity for protein only. Each data set was normalized against the maximum intensity observed for the respective sample at time 0. The normalized sample was further corrected by blank subtraction. The observed rate (kobs) was derived by fitting the change in intensity with respect to time by fitting to association kinetics equation implemented in Prism. Y=Y0+(Ymax−Y0)(1−e^[…]) where, Y0 is the intensity at time 0, Ymax is the maximum intensity, k is rate constant.

Compound	Kd (tSH2R192A of ZAP-70)	Kd (Syk tSH2 domain)	Subsequent (second) binding step (tSH2 domain of ZAP-70)	kobsfast (ZAP-70 tSH2 domain; 100 nM tSH2, 30 μM peptide, 20 mM Tris pH 8.0, 150 mM NaCl, 5% glycerol, 5 mM β-mercaptoethanol, λex 290/λem 350 nm, 1 s transients, SD from three independent experiments)	Slow binding step (in words) (ZAP-70 tSH2 domain; wild-type tSH2)
CC(C)C[C@H](NC(=O)[C@H](CC(N)=O)NC(=O)[C@H](CC(C)C)NC(=O)[C@H](CCC(=O)O)NC(=O)[C@H](CC(N)=O)NC(=O)[C@H](Cc1ccc(OP(=O)(O)O)cc1)NC(=O)[C@H](CC(C)C)NC(=O)[C@H](CCC(N)=O)NC(=O)[C@@H](N)CC(N)=O)C(=O)NCC(=O)N[C@@H](CCCNC(=N)N)C(=O)N[C@@H](CCCNC(=N)N)C(=O)N[C@@H](C)C(=O)N[C@@H](CCC(=O)O)C(=O)N[C@@H](Cc1ccc(OP(=O)(O)O)cc1)C(=O)N[C@@H](CC(=O)O)C(=O)N[C@H](C(=O)N[C@@H](CC(C)C)C(=O)N[C@@H](CC(=O)O)C(=O)O)C(C)C [ITAM-Y2P-ζ1 E13A]	9.8 ± 0.75 µM	–	–	–	–
CC(C)C[C@H](NC(=O)CNC(=O)[C@@H](N)CC(=O)O)C(=O)N[C@@H](Cc1ccc(OP(=O)(O)O)cc1)C(=O)N[C@@H](CCC(N)=O)C(=O)NCC(=O)N[C@@H](CC(C)C)C(=O)N[C@@H](CO)C(=O)N[C@H](C(=O)N[C@@H](C)C(=O)N[C@H](C(=O)N[C@@H](CCCCN)C(=O)N[C@@H](CC(=O)O)C(=O)N[C@H](C(=O)N[C@@H](Cc1ccc(OP(=O)(O)O)cc1)C(=O)N[C@@H](CC(=O)O)C(=O)N[C@@H](C)C(=O)N[C@@H](CC(C)C)C(=O)N[C@@H](Cc1c[nH]cn1)C(=O)O)[C@@H](C)O)[C@@H](C)O)[C@@H](C)O [ITAM-Y2P-ζ3] (H-DGL[pY]QGLSTATKDT[pY]DALH-OH)	12 ± 0.9 µM	0.0698 µM and 0.065 to 0.07 µM	–	–	–
CC(C)C[C@H](NC(=O)[C@H](CC(N)=O)NC(=O)[C@H](CC(C)C)NC(=O)[C@H](CCC(=O)O)NC(=O)[C@H](CC(N)=O)NC(=O)[C@H](Cc1ccc(OP(=O)(O)O)cc1)NC(=O)[C@H](CC(C)C)NC(=O)[C@H](CCC(N)=O)NC(=O)[C@@H](N)CC(N)=O)C(=O)NCC(=O)N[C@@H](CCCNC(=N)N)C(=O)N[C@@H](CCCNC(=N)N)C(=O)N[C@@H](CCC(=O)O)C(=O)N[C@@H](CCC(=O)O)C(=O)N[C@@H](Cc1ccc(O)cc1)C(=O)N[C@@H](CC(=O)O)C(=O)N[C@H](C(=O)N[C@@H](CC(C)C)C(=O)N[C@@H](CC(=O)O)C(=O)O)C(C)C [ITAM-YP-ζ1]	–	–	no subsequent binding was observed	28.60 ± 5.84 s⁻¹	no detectable slow binding
